Results from ChEMBL document CHEMBL1147309, “Antitumor agents, 110. Bryophyllin B, a novel potent cytotoxic bufadienolide from Bryophyllum pinnatum” (1989).
In brackets after ≈: the same amount, converted by molar mass.

Key:
Format in all cases: functional
Settings in all cases: read-out: ED50 (the source's name)
L1210 = experiment: Cytotoxicity against mouse L1210 cells
A549 = experiment: Cytotoxicity against human A549 cells
P388 = experiment: Cytotoxicity against mouse P388 cells
HCT-8 = experiment: Cytotoxicity against human HCT8 cells
KB = experiment: Cytotoxicity against human KB cells

Structure (SMILES) | EC50 (L1210) | EC50 (A549) | EC50 (P388) | EC50 (HCT-8) | EC50 (KB)
CC(=O)O[C@H]1C[C@@H](O)[C@]2(C=O)[C@H]3CC[C@]4(C)[C@@H](c5ccc(=O)oc5)CC[C@]4(O)[C@@H]3CC[C@]2(O)C1 | > 0.004 µg/mL | 0.04 µg/mL (≈ 0.0843 µM) | > 0.004 µg/mL | 0.01 µg/mL (≈ 0.0211 µM) | < 0.04 µg/mL
C[C@@]12O[C@H]3C[C@@H](O1)[C@]1(C=O)[C@H]4[C@H](O)C[C@]5(C)[C@@H](c6ccc(=O)oc6)CC[C@]5(O)[C@@H]4CC[C@@]1(C3)O2 [BRYOPHYLLIN A] | > 0.004 µg/mL | 0.01 µg/mL (≈ 0.0212 µM) | > 0.004 µg/mL | 0.03 µg/mL (≈ 0.0635 µM) | 0.014 µg/mL (≈ 0.0296 µM)
CC(=O)O[C@@H]1C[C@H](O)C[C@@]2(O)CC[C@@H]3[C@@H]4[C@@H](C[C@]5(C)[C@@H](c6ccc(=O)oc6)CC[C@]35O)O[C@H](O)[C@]412 [BRYOPHYLLIN B] |  |  |  |  | < 0.08 µg/mL
